Broadly, the IC50 is the point on the concentration scale where inhibition reaches its midpoint.

Assay type in all cases: cell-based
One assay relates to WT RPE-1 cells. Description: 12-day clonogenic survival assay, WT cells. The note with it: for IC50: calculated IC50, WT cells. Here is the method:
(§1) a. Top, Immunoblot profiling of WT and NMNAT1^−/− RPE-1 cells for the indicated proteins. Bands corresponding to UNG1 (lower MW) and UNG2 (higher MW) are indicated. […] Cells were treated for 24 hours with the indicated doses of FdUrd, with and without 5 μM TAS-114. Bottom, Cell cycle distribution of WT (+/+) and NMNAT1^−/− (−/−) RPE-1 cells treated as in (top) (n=2). b. Quantification of gDNA-uracil and DNA breaks by modified comet assay with (right) and without (left) recombinant UNG (rUNG) respectively, in WT RPE-1 cells upon 24-hour FdUrd treatment with and without 5 μM TAS-114. Results are shown as tail moment. At least 80 comets per condition was measured using CometScore. […] The enzymes involved are indicated in bold and italic. Bottom, Immunoblot profiling of NMNAT1, ADP-ribosylation (PAR) and PARP1 (short and long exposures) in WT and NMNAT1^−/− cells complemented or not with wild type (WT) or catalytically-dead mutant (MUT) NMNAT1 (W169A). PARP1 was detected after membrane stripping of the anti-ADP ribosylation antibody. Cells were treated or not with PDD 00017273 (PARGi, 10 μM) for 2 hours and 10 mM MMS was added the last 10 minutes before cell lysis. Vinculin was used as loading control. d. Quantification of the 12-day clonogenic survival assay of the same cells as in (c, bottom) treated or not with the indicated doses of rucaparib (PARPi) for the duration of the experiment (n=3). e. Quantification of the 12-day clonogenic survival assay in WT (black) and NMNAT1^−/− (red) cells following exposure to the indicated doses of the indicated DNA-damaging drugs (n=3). f. Quantification of the 12-day clonogenic survival assay in WT, NMNAT1^−/−, and UNG^−/− cells following 24-hour exposure to the indicated doses of FdUrd with or without 5 μM TAS-114 (n=3). g. Quantification of the 12-day clonogenic survival assay in WT (black), NMNAT1^−/−, and UNG^−/− cells following 24-hour exposure to the indicated doses of TAS-114. (n=3). For WT cells, data are the same as in (FIG. 14c). h. Top, RT-qPCR quantification of DUT mRNA levels following 72-hour transfection of WT RPE-1 cells with DUT siRNA (siDUT) or relative control (siCTRL). Results are represented as fold change over siCTRL. (Bottom), Quantification of the 12-day clonogenic survival assay in WT (left), NMNAT1^−/− (middle), and UNG^−/− (right) cells following transfection with DUT siRNA and relative control (siCTRL). Data were expressed as a percentage (mean±s.e.m.) of colonies formed in each cell line relative to the appropriate siCTRL (n=3). i. Quantification of gDNA-uracil and DNA breaks as in (b) in WT and NMNAT1^−/− cells upon 0.08 μM FdUrd treatment with and without 5 μM TAS-114 for 24 hours.
(§2) To investigate the mechanism underlying the interplay between UNG and SMUG1, the inventors investigated the role of nuclear NAD^+ (nicotinamide adenine dinucleotide), a molecule with essential—yet poorly characterized—functions in DNA repair. In the nucleus of mammalian cells NAD^+ is synthesized by NMNAT1 (nicotinamide mononucleotide adenylyltransferase 1) and fuels the activity of PARP1 and sirtuins (FIG. 15c). The inventors generated NMNAT1 knockout (NMNAT1^−/−) RPE-1 cells and evaluated their sensitivity to a panel of DNA damaging agents (Table 1).

For the next assay, the system named is NMNAT1−/− RPE-1 cells. Description: 12-day clonogenic survival assay, NMNAT1 knockout cells. Conditions: for IC50: calculated IC50, NMNAT1−/− cells; for sensitivity of NMNAT1−/− cells relative to WT cells: drugs targeting the TS pathway; for Fold change (WT/NMNAT1−/−): ratio of IC50 WT to IC50 NMNAT1−/−. The procedure:
as §1, §2

The subject of assay [1] is PARPi-resistant CAPAN-1 clones. Description: Clonogenic formation, PARPi-resistant CAPAN-1 clones. Conditions: indicated doses. Here is the method:
(§3) FIG. 7. a, Clonogenic formation of wild type (WT) and BRCA2−/− (clones C1 and C2) following exposure to the indicated doses of SIRT6 inhibitor OSS_128167. b, Clonogenic formation of wild type (WT), BRCA2−/− (clones C1 and C2) and BRCA2−/−-derived PARPi-resistant RPE-1 cells following exposure to 0.5 mM SIRT6 inhibitor OSS_128167. c, Clonogenic formation of parental and derived PARPi-resistant CAPAN-1 clones following exposure to the indicated doses of SIRT6 inhibitor OSS_128167. The normal breast epithelial cells MCF10A were included as an HR-proficient cell line.

The subject of assay [2] is BRCA2−/−-derived PARPi-resistant RPE-1 cells. Description: Clonogenic formation, PARPi-resistant BRCA2 knockout cells. Conditions: 0.5 mM inhibitor. The procedure: as §3
Assay [3] has as its system BRCA2−/− RPE-1 cells (clones C1 and C2). In words: Clonogenic formation / survival assay, BRCA2 knockout clones. The procedure:
as §3
a. Quantification (top) and representative image (bottom right) of the 12-day clonogenic survival assay in WT and BRCA2^−/− cells following transduction with viral particles carrying either pLentiCRISPRv2 Neo_UNG gRNA (UNG gRNA) or relative control (CTRL gRNA) (n=3). Cells were seeded for clonogenic assay after selection with G418. Bottom left, Immunoblot analysis of UNG after G418 selection. b. […] Right, qPCR-based quantification of UNG activity in the same cell lines as in (left). c. […] Right, immunoblot analysis of UNG in the same samples as in (left). The arrows indicate UNG1 (lower) and UNG2 (upper). Vinculin was used as a loading control. d. […] Left, Quantification (left) and representative images (right) of the 12-day clonogenic survival assay in WT and NMNAT1^−/− cells complemented or not (EV, empty vector) with wild-type (WT) or catalytically-dead mutant (MUT:W169A) NMNAT1 cDNA following transfection with siBRCA2 (n=3). f. Quantification of the 12-day clonogenic survival assay in the HR-deficient cancer cell lines CAPAN1 (BRCA2 mutated) and OVCAR8 (BRCA1 promoter hypermethylation) following transfection with siUNG #7 (n=3). g. Quantification (left) and representative images (right) of the 12-day clonogenic survival assay in a panel of HR-proficient and HR-deficient cancer and normal (MCF10A) cell lines following transfection with siNMNAT1 (n=3).

For another assay, the system named is MCF10A cells. Description: Clonogenic formation, normal breast epithelial cells. The note with it: same doses as for the CAPAN-1 clones. Here is the method:
as §3

The subject of assay [4] is cells lacking either NMNAT1 or UNG. In words: γH2AX foci formation (DSB) by immunofluorescence. The note with it: 24 h treatment, EdU-positive cells. The procedure: FIG. 11. Uracil excision is regulated by nuclear NAD^+. a. Quantification of post-replicative ssDNA gaps using DNA fiber assay in P53^−/− RPE-1 cells after 48-hours transfection with the indicated siRNAs. b. Schematic of 2′-deoxyuridine (dUTP)/thymidine (dTTP) biosynthetic pathway. The biological processes involved are in italic. c. Nuclear fractionation and immunoblot profiling of the indicated proteins following 24-hour drug exposure (0.1 μM FdUrd+5 μM TAS-114) of WT and UNG^−/− cells. For the washed-out samples (w.o.), cells were harvested 24 hours after drug removal. Western blot images are representative of three experiments. d. Left, quantification of DNA breaks (left, − rUNG) and gDNA-uracil (right, + rUNG) in wild type (WT) and NMNAT1^−/− cells upon 24-hour FdUrd treatment (20 μM) and the indicated hours after drug washout (w.o.). […] Right, Quantification of UNG protein level captured as in (left) normalized over captured PCNA and H3. f. Quantification of γH2AX foci formation before and after 24 h treatment of WT (grey) and NMNAT1^−/− (orange) cells with the indicated doses of TAS-114 (μM). g. Quantification (left) and representative images (right) of 12-day clonogenic survival assay following transfection with siRNAs and drug treatment of WT and NMNAT1^−/− cells as indicated. […]
a. […] Mass spectrometry-based quantification of the indicated metabolites (n=3). c. […]

As to `O=c1[nH]c(=O)n([C@H]2C[C@H](O)[C@@H](CO)O2)cc1F` [FDURD, 5-fluorodeoxyuridine], in the assay with WT RPE-1 cells (Homo sapiens, RPE-1), the IC50 is 51.6 µM. In addition, the IC50 with NMNAT1−/− RPE-1 cells (Homo sapiens, RPE-1) was 17.7 µM. Moreover, in the assay with NMNAT1−/− RPE-1 cells, the “sensitivity of NMNAT1−/− cells relative to WT cells” value was “more sensitive than WT cells” and the “Fold change (WT/NMNAT1−/−)” value is given as 2.92.
Take `OO` [H202]: in the assay with WT RPE-1 cells, the IC50 was 22.8 µM. For the same molecule, in the assay with NMNAT1−/− RPE-1 cells, the IC50 was 22.1 µM and the “Fold change (WT/NMNAT1−/−)” value is on record as 1.03.
For `NC(=O)NO` [HU, hydroxyurea] the same measures were 1570 µM, 637 µM and 2.46.
For `COS(C)(=O)=O` [MMS] the same measures were 242 µM, 130 µM and 1.86.
Take `CN(Cc1cnc2nc(N)nc(N)c2n1)c1ccc(C(=O)N[C@@H](CCC(=O)O)C(=O)O)cc1` [MTX]: the IC50 with WT RPE-1 cells is 112 µM. Further, in the assay on NMNAT1−/− RPE-1 cells, the IC50 is 8.8 µM, the “sensitivity of NMNAT1−/− cells relative to WT cells” value is reported as “more sensitive than WT cells” and the “Fold change (WT/NMNAT1−/−)” value is on record as 12.75.
With `O=C(Nc1ccc(O)c(C(=O)O)c1)c1cccc(NC(=O)c2ccco2)c1` [OSS_128167], the figures for the clonogenic formation result in assay [1] and in assay [2] were “resulted in cell death” and “killed the PARPi-resistant BRCA2−/− RPE-1 cells to a similar extent than the parental drug-naïve cells”, respectively. For the same molecule, the “survival of parental HRP cells” value in the assay on WT RPE-1 cells (parental HRP RPE-1 cells, indicated doses) is given as “no effect on the survival”. Also, the clonogenic ability entry in assay [3] (BRCA2−/− RPE-1 cells, indicated doses) is on record as “impaired the clonogenic ability”; in the assay with MCF10A cells, “did not affect the clonogenic ability”.
Regarding `C[C@@H](NS(=O)(=O)CCCOCn1ccc(=O)[nH]c1=O)c1cccc(OC2CCCC2)c1` [TAS-114], the “sensitivity of BRCA2−/− cells upon UNG depletion” value in assay [3] (siUNG, 1 μM TAS-114, rescued by knockdown of SMUG1) is listed as “sensitized”. In addition, in assay [4], the “DSB formation (γH2AX foci)” value is listed as “triggered DNA double-strand break (DSB) formation exclusively during DNA replication”. Further, the “survival upon pharmacological inhibition of DUT” value with NMNAT1−/− RPE-1 cells (24-hour exposure) is given as “decreased survival”.

B1: UGI: peptide inhibitor of UNG, delivered by retroviral particles (protein, UniProt P14739 1-84, looked up)
Uracil-DNA glycosylase …: MTNLSDIIEKETGKQLVIQESILMLPEEVEEVIGNKPESDILVHTAYDESTDENVMLLTSDAPEYKPWALVIQDSNGENKIKML
Take B1: in assay [3] (retroviral particles carrying UGI, versus WT cells), the “clonogenic survival upon UNG inhibition” value is recorded as “selectively kills”.
